Assay results: patent US11130741B2 (Bioimics AB, priority 2016, dated 2021)
≈ marks a conversion by molar mass, not a printed value. Where a name gives a salt, the structure may show the parent alone. Read-outs that look alike come from different tables or passages of the source.

Assays:
[1] = system: Escherichia coli (ATCC25922); experiment: MIC, broth microdilution (CLSI), Escherichia coli ATCC25922
[2] = system: Staphylococcus aureus subsp. aureus (ATCC29213); experiment: MIC, broth microdilution (CLSI), Staphylococcus aureus subsp. aureus ATCC29213; type: cell-based; settings: ATCC29213, Table 15, read-out: S. aureus ("wound") (MIC)
[3] = ATCC25922, read-out: E. coli MIC, Table 15, NI = No inhibition
[4] = ATCC25922, read-out: E. coli MIC

| Compound | MIC [1, 3] | MIC [2] | MIC [1, 4] |
| --- | --- | --- | --- |
| NC1CCCC(C(=O)Nc2cc(C(F)(F)F)cc3c2Nc2ccc(N4CCNCC4)cc2S3)C1 (stereo not shown) [compound 256, 3-amino-N-(7-(piperazin-1-yl)-3-(trifluoromethyl)-10H-phenothiazin-1-yl)cyclohexane-1-carboxamide] | 32 µg/mL (≈ 65.1 µM) | 16 µg/mL (≈ 32.5 µM) | – |
| NC1CCCC(C(=O)Nc2cc(C(F)(F)F)cc3c2Nc2ccncc2S3)C1 (stereo not shown) [compound 257, 3-amino-N-(8-(trifluoromethyl)-5H-benzo[e]pyrido[3,4-b][1,4]thiazin-6-yl)cyclohexanecarboxamide] | 128 µg/mL (≈ 313 µM) | 64 µg/mL (≈ 157 µM) | – |
| FC(F)(F)c1cc(NC2CCNCC2)c2c(c1)SC1CCCCC1N2 (stereo not shown) [compound 259, N-(piperidin-4-yl)-7-(trifluoromethyl)-2,3,4,4a,10,10a-hexahydro-1H-phenothiazin-9-amine] | 64 µg/mL (≈ 172 µM) | 16 µg/mL (≈ 43.1 µM) | – |
| NCCCN1c2ccc(C(=O)O)cc2Sc2cc(-c3cc4ccccc4[nH]3)ccc21 [compound 262, 10-(3-aminopropyl)-7-(1H-indol-2-yl)-10H-phenothiazine-3-carboxylic acid trifluoro acetic acid] | – | 32 µg/mL (≈ 77 µM) | > 128 µg/mL |
| NC1CCCC(C(=O)Nc2cc(C(F)(F)F)cc3c2Nc2ncccc2S3)C1 (stereo not shown) [compound 263, 3-amino-N-(7-(trifluoromethyl)-10H-benzo[b]pyrido[2,3-e] [1,4]thiazin-9-yl)cyclohexane-1-carboxamide] | 64 µg/mL (≈ 157 µM) | 64 µg/mL (≈ 157 µM) | – |
| FC(F)(F)c1cc(NC2CCNCC2)c2c(c1)Sc1cccnc1N2 [compound 264, N-(piperidin-4-yl)-7-(trifluoromethyl)-10H-benzo[b] pyrido[2,3-e] [1,4]thiazin-9-amine] | 16 µg/mL (≈ 43.7 µM) | 8 µg/mL (≈ 21.8 µM) | – |
| NCCCN1c2ccc(N3CCNCC3)cc2Sc2cc(C(F)(F)F)ccc21 [compound 265, 3-(3-(piperazin-1-yl)-7-(trifluoromethyl)-10H-phenothiazin-10-yl)propan-1-amine hydrochloride] | – | 16 µg/mL | 64 µg/mL |
| NCCCN1c2ccncc2Sc2cc(-c3cc4ccccc4[nH]3)ccc21 [compound 267, 3-(8-(1H-indol-2-yl)-5H-benzo[b]pyrido[4,3-e] [1,4]thiazin-5-yl)propan-1-amine trifluoro acetic acid] | – | 2 µg/mL (≈ 5.37 µM) | 16 µg/mL (≈ 43 µM) |
| NCCN1CCN(c2ccc3c(c2)Sc2cc(C(F)(F)F)cc(NC4CCNCC4)c2N3)CC1 [compound 269, 7-(4-(2-aminoethyl)piperazin-1-yl)-N-(piperidin-4-yl)-3-(trifluoromethyl)-10H-phenothiazin-1-amine hydrochloride] | – | 16 µg/mL | 64 µg/mL |
| FC(F)(F)c1cc(NC2CCNCC2)c2c(c1)Sc1cc(N3CCNCC3)ccc1N2 [compound 270, 7-(piperazin-1-yl)-N-(piperidin-4-yl)-3-(trifluoromethyl)-10H-phenothiazin-1-amine hydrochloride] | – | 32 µg/mL | 128 µg/mL |
| CCOC(=O)c1ccc2c(c1)Sc1cc(N3CCN(CCN)CC3)ccc1N2CCCN [compound 271, ethyl 7-(4-(2-aminoethyl)piperazin-1-yl)-10-(3-aminopropyl)-10H-phenothiazine-3-carboxylate trifluoro acetic acid] | – | 128 µg/mL (≈ 281 µM) | > 128 µg/mL |
| Cl.Cl.NCCN1CCC(Nc2cc(C(F)(F)F)cc3c2Nc2ccc(N4CCC(N)CC4)cc2S3)CC1 [compound 272, N-(1-(2-aminoethyl)piperidin-4-yl)-7-(4-aminopiperidin-1-yl)-3-(trifluoromethyl)-10H-phenothiazin-1-amine] | 32 µg/mL | 16 µg/mL | – |
| Cl.Cl.Cl.NCCC1CCN(c2ccc3c(c2)Sc2cc(C(F)(F)F)cc(NC4CCN(CCN)CC4)c2N3)CC1 [compound 273, 7-(4-(2-aminoethyl)piperidin-1-yl)-N-(1-(2-aminoethyl)piperidin-4-yl)-3-(trifluoromethyl)-10H-phenothiazin-1-amine hydrochloride] | 32 µg/mL | 8 µg/mL | – |
| CCOC(=O)c1ccc2c(c1)Sc1cc(Br)ccc1N2CCCN [compound 276, ethyl 10-(3-aminopropyl)-7-bromo-10H-phenothiazine-3-carboxylate] | 32 µg/mL (≈ 78.6 µM) | 4 µg/mL (≈ 9.82 µM) | – |
| Cl.Cl.NCCCN1c2ccc(C(=O)O)cc2Sc2cc(N3CCN(CCN)CC3)ccc21 [compound 277, 7-(4-(2-aminoethyl)piperazin-1-yl)-10-(3-aminopropyl)-10H-phenothiazine-3-carboxylic acid hydrochloride] | – | > 128 µg/mL | > 128 µg/mL |
| Cl.Cl.Cl.NCCCN1c2ccc(Br)cc2Sc2cc(N3CCN(CCN)CC3)ccc21 [compound 278, 3-(3-(4-(2-aminoethyl)piperazin-1-yl)-7-bromo-10H-phenothiazin-10-yl)propan-1-amine hydrochloride] | 128 µg/mL | 32 µg/mL | – |

| Compound | MIC [1, 3] | MIC [2] | MIC [1, 4] |
| --- | --- | --- | --- |
| CC1CN(c2ccc3c(c2)Sc2cc(Br)ccc2N3CCCN)CC(C)O1.Cl (stereo not shown) [compound 279, 3-(3-bromo-7-(2,6-dimethyl-morpholino)-10H-phenothiazin-10-yl)propan-1-amine hydrochloride] | 128 µg/mL | 16 µg/mL | – |
| Cl.Cl.NCCN1CCC(Nc2cc(C(=O)NNc3ccc(F)cc3)cc3c2Nc2ccccc2S3)CC1 [compound 280, 1-((1-(2-aminoethyl)piperidin-4-yl)amino)-N′-(4-fluorophenyl)-10H-phenothiazine-3-carbohydrazide hydrochloride] | 64 µg/mL | 16 µg/mL | – |
| Cl.Cl.NCCN1CCC(Nc2cc(C(=O)NNc3ccccc3)cc3c2Nc2ccccc2S3)CC1 [compound 281, 1-((1-(2-aminoethyl)piperidin-4-yl)amino)-N′-phenyl-10H-phenothiazine-3-carbohydrazide hydrochloride] | 64 µg/mL | 32 µg/mL | – |
| Cl.Cl.NCCN1CCC(Nc2cc(C(F)(F)F)cc3c2Nc2ccc(Br)cc2S3)CC1 [compound 282, N-(1-(2-aminoethyl)piperidin-4-yl)-7-bromo-3-(trifluoromethyl)-10H-phenothiazin-1-amine hydrochloride] | 8 µg/mL | 4 µg/mL | – |
| CC1CC(C)CN(c2ccc3c(c2)Sc2cc(N4CCN(CCN)CC4)ccc2N3CCCN)C1.Cl.Cl.Cl.Cl (stereo not shown) [compound 286, 3-(3-(4-(2-aminoethyl)piperazin-1-yl)-7-(3,5-dimethyl-piperidin-1-yl)-10H-phenothiazin-10-yl)propan-1-amine hydrochloride] | 128 µg/mL | 32 µg/mL | – |
| Cl.Cl.NCCN1CCC(Nc2cc(C(N)=O)cc3c2Nc2ccccc2S3)CC1 [compound 287, 1-((1-(2-aminoethyl)piperidin-4-yl)amino)-10H-phenothiazine-3-carboxamide hydrochloride] | – | 128 µg/mL | > 128 µg/mL |
| Cl.Cl.NCCN1CCC(Nc2cc(C(=O)N3CCCC3)cc3c2Nc2ccccc2S3)CC1 [compound 288, (1-(1-(2-aminoethyl)piperidin-4-ylamino)-10H-phenothiazin-3-yl)(pyrrolidin-1-yl)methanone] | – | 128 µg/mL | 128 µg/mL |
| Cl.Cl.NCCN1CCC(Nc2cc(C(F)(F)F)cc3c2Nc2ccc(N4CCCCC4)cc2S3)CC1 [compound 289, N-(1-(2-aminoethyl)piperidin-4-yl)-7-(piperidin-1-yl)-3-(trifluoromethyl)-10H-phenothiazin-1-amine hydrochloride] | 8 µg/mL | 4 µg/mL | – |
| FC(F)(F)c1cc(NC2CC3CCC(C2)N3)c2c(c1)Sc1ccccc1N2 (stereo not shown) [compound 290, N-(8-azabicyclo[3.2.1]octan-3-yl)-3-(trifluoromethyl)-10H-phenothiazin-1-amine] | 32 µg/mL (≈ 81.7 µM) | 8 µg/mL (≈ 20.4 µM) | – |
| Cl.Cl.Cl.NCCCN1c2ccc(N3CCCC3)cc2Sc2cc(N3CCN(CCN)CC3)ccc21 [compound 291, 3-(3-(4-(2-aminoethyl)piperazin-1-yl)-7-(pyrrolidin-1-yl)-10H-phenothiazin-10-yl)propan-1-amine hydrochloride] | 128 µg/mL | 16 µg/mL | – |
| Cl.NCCN1CCC(Nc2cc(C(F)(F)F)cc3c2Nc2ccc(N4CCC4)cc2S3)CC1 [compound 296, N-(1-(2-aminoethyl)piperidin-4-yl)-7-(azetidin-1-yl)-3-(trifluoromethyl)-10H-phenothiazin-1-amine hydrochloride] | 8 µg/mL | 4 µg/mL | – |
| Cl.Cl.N#Cc1ccc2c(c1)Sc1cc(C(F)(F)F)cc(NC(=O)CCNCCN)c1N2 [compound 304, 3-((2-aminoethyl)amino)-N-(7-cyano-3-(trifluoromethyl)-10H-phenothiazin-1-yl)propanamide hydrochloride] | 32 µg/mL | 16 µg/mL | – |
| CC1CCCN(c2ccc3c(c2)Sc2cc(C(F)(F)F)cc(NC(=O)CCNCCN)c2N3)C1.Cl.Cl (stereo not shown) [compound 308, 3-((2-aminoethyl)amino)-N-(7-(3-methyl-piperidin-1-yl)-3-(trifluoromethyl)-10H-phenothiazin-1-yl)propanamide hydrochloride] | 64 µg/mL | 16 µg/mL | – |
| Cl.Cl.NCCN1CCC(Nc2cc(C(F)(F)F)cc3c2Nc2ccc(N4CCc5ccccc54)cc2S3)CC1 [compound 310, N-(1-(2-aminoethyl)piperidin-4-yl)-7-(indolin-1-yl)-3-(trifluoromethyl)-10H-phenothiazin-1-amine hydrochloride] | 128 µg/mL | 8 µg/mL | – |
| CC1CCCN(c2ccc3c(c2)Sc2cc(C(F)(F)F)cc(NC(=O)C4CCCC(N)C4)c2N3)C1.Cl.Cl (stereo not shown) [compound 313, 3-amino-N-(7-(3-methyl-piperidin-1-yl)-3-(trifluoromethyl)-10H-phenothiazin-1-yl)cyclohexane-1-carboxamide hydrochloride] | > 128 µg/mL | 16 µg/mL | – |
| CC1CCCN1c1ccc2c(c1)Sc1cc(C(F)(F)F)cc(NC3CCN(CCN)CC3)c1N2.Cl.Cl (stereo not shown) [compound 316, N-(1-(2-aminoethyl)piperidin-4-yl)-7-(2-methyl-pyrrolidin-1-yl)-3-(trifluoromethyl)-10H-phenothiazin-1-amine hydrochloride] | 8 µg/mL | 2 µg/mL | – |
